Measured values taken from patent US7960568B2, “Heterocyclyl-substituted sulfonamides for the treatment of cognitive or food ingestion related disorders” (Laboratorios Del Dr. Esteve, S.A., priority 2007, dated 2011).
“And” between values parts separate entries of the source, which are not always exact repeats. Equal entries are not always repeated.

Biological target: T1, 5HT6 human recombinant receptor (Homo sapiens, UniProt P50406)
T1 construct: purchased Receptor Biology; host or cells: HEK-293 cell membranes
T1 sequence (P50406 whole entry): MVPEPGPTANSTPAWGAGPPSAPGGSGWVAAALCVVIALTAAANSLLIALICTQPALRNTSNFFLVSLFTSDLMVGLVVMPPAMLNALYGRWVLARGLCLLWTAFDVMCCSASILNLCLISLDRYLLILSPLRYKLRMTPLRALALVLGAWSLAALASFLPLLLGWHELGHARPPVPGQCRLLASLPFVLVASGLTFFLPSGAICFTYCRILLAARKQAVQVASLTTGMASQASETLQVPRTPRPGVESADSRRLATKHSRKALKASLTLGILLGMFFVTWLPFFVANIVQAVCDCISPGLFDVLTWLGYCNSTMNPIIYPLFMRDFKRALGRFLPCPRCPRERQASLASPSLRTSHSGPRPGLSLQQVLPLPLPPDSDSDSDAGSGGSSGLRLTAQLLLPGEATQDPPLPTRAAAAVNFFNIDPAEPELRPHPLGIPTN
Test: Binding with serotonin receptor 5HT6 ([3H]-LSD radioligand, HEK-293 cell membranes)
Details: [3H]-LSD 2.7 nM, HEK-293 membranes; for inhibition at 0.01 µM: 10 nM compound; for inhibition at 0.01 µM / inhibition at 0.1 µM: 60 min, 37° C.; for inhibition at 0.1 µM: 100 nM compound; for Ki: non-linear regression EBDA/LIGAND
Method: Biological Assays Binding with Serotonin Receptor 5HT6
Cell membranes of HEK-293 cells expressing the 5HT6 human recombinant receptor were supplied by Receptor Biology. In said membranes the receptor concentration is 2.18 pmol/mg protein and the protein concentration is 9.17 mg/ml. The experimental protocol follows the method of B. L. Roth et al. [B. L. Roth, S. C. Craigo, M. S. Choudhary, A. Uluer, F. J. Monsma, Y. Shen, H. Y. Meltzer, D. R. Sibley: Binding of Typical and Atypical Antipsychotic Agents to 5-Hydroxytryptamine-6 and Hydroxytriptamine-7 Receptors. The Journal of Pharmacology and Experimental Therapeutics, 1994, 268, 1403] with slight changes. The commercial membrane is diluted (1:40 dilution) with the binding buffer: 50 mM Tris-HCl, 10 mM MgCl2, 0.5 mM EDTA (pH 7.4). The radioligand used is [^3H]-LSD at a concentration of 2.7 nM with a final volume of 200 μl. incubation is initiated by adding 100 μl of membrane suspension, (≈22.9 μg membrane protein), and is prolonged for 60 minutes at a temperature of 37° C. The incubation is ended by fast filtration in a Brandel Cell Harvester through fiber glass filters made by Schleicher & Schuell GF 3362 pretreated with a solution of polyethylenimine at 0.5%. The filters are washed three times with three milliliters of buffer Tris-HCl 50 mM pH 7.4. The filters are transferred to flasks and 5 ml of Ecoscint H liquid scintillation cocktail are added to each flask. The flasks are allowed to reach equilibrium for several hours before counting with a Wallac Winspectral 1414 scintillation counter. Non-specific binding is determined in the presence of 100 μM of serotonin. Tests were made in triplicate. The inhibition constants (Ki, nM) were calculated by non-linear regression analysis using the program EBDA/LIGAND [Munson and Rodbard, Analytical Biochemistry, 1980, 107, 220].

`CCNCCc1c[nH]c2ccc(NS(=O)(=O)c3sc4ccc(Cl)cc4c3C)cc12` [Example 1, 5-Chloro-3-methyl-benzo[b]thiophene-2-sulfonic acid [3-(2-ethylamino-ethyl)-1H-indol-5-yl]-amide] was tested, and the inhibition at 0.01 µM was 82.7%, the inhibition at 0.1 µM was 91.4% and the Ki was 0.67 nM.
In the case of `Cc1c(S(=O)(=O)Nc2ccc3[nH]cc(CCN)c3c2)sc2ccc(Cl)cc12` [Example 5, 5-Chloro-3-methyl-benzo[b]thiophene-2-sulfonic acid [3-(2-amino-ethyl)-1H-indol-5-yl]-amide], the inhibition at 0.01 µM is reported as 63.5%, the inhibition at 0.1 µM is reported as 85% and the Ki is reported as 11.7 nM.
With `CNCCc1c[nH]c2ccc(NS(=O)(=O)c3c(Cl)nc4sccn34)cc12` [Example 3, 6-Chloro-imidazo[2,1-b]thiazole-5-sulfonic acid [3-(2-methylamino-ethyl)-1H-indol-5-yl]-amide] the inhibition at 0.01 µM was 47.3%, the inhibition at 0.1 µM was 71.8% and the Ki was 4.7 nM and 3.2 nM.
Molecule `NCCc1c[nH]c2ccc(NS(=O)(=O)c3c(Cl)nc4sccn34)cc12` [Example 6, 6-Chloro-imidazo[2,1-b]thiazole-5-sulfonic acid [3-(2-amino-ethyl)-1H-indol-5-yl]-amide] has an inhibition at 0.01 µM of 75.7%, an inhibition at 0.1 µM of 92.3% and a Ki of 3.6 ± 1.4 nM.
`CNCCc1c[nH]c2ccc(NS(=O)(=O)c3sc4ccc(Cl)cc4c3C)cc12` [Example 2, 5-Chloro-3-methyl-benzo[b]thiophene-2-sulfonic acid [3-(2-methylamino-ethyl)-1H-indol-5-yl]-amide] was tested, and the inhibition at 0.01 µM was 62.5%, the inhibition at 0.1 µM was 80.3% and the Ki was 2 nM.
`CCNCCc1c[nH]c2ccc(NS(=O)(=O)c3c(Cl)nc4sccn34)cc12` [Example 4, 6-Chloro-imidazo[2,1-b]thiazole-5-sulfonic acid [3-(2-ethylamino-ethyl)-1H-indol-5-yl]-amide] was tested, and the inhibition at 0.01 µM was 61.8%, the inhibition at 0.1 µM was 81.7% and the Ki was 6.4 ± 1 nM.
